Laboratory results from patent US8461328B2, “Tricyclic heterocyclic compounds, compositions and methods of use thereof” (Genentech, Inc., priority 2010, dated 2013).

Legend:
Format in all cases: biochemical
[1] = biological target: T1, JAK1 (Homo sapiens, UniProt P23458); experiment: JAK1 inhibition (Table 4); details: read-out: JAK1 Ki
T1 construct: made in house; host or cells: SF9 insect cells (baculovirus)

[2] = biological target: T2, TYK2 (Homo sapiens, UniProt P29597); experiment: TYK2 inhibition (Table 4)
T2 construct: made in house; host or cells: SF9 insect cells (baculovirus)
T2 sequence (P29597 873-1187): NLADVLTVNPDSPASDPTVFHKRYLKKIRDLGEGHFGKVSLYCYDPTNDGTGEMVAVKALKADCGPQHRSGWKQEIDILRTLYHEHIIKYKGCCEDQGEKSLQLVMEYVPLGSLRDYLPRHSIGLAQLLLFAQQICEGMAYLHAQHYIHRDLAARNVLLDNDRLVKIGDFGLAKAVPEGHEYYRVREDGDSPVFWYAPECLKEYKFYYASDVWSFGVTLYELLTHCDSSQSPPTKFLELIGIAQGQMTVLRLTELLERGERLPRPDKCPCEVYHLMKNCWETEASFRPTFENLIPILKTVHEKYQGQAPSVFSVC

[3] = biological target: T3, JAK2 (Homo sapiens, UniProt O60674); experiment: JAK2 inhibition (Table 4); details: read-out: JAK2 Ki
T3 construct: made in house; host or cells: SF9 insect cells (baculovirus)
T3 sequence (O60674 812-1132): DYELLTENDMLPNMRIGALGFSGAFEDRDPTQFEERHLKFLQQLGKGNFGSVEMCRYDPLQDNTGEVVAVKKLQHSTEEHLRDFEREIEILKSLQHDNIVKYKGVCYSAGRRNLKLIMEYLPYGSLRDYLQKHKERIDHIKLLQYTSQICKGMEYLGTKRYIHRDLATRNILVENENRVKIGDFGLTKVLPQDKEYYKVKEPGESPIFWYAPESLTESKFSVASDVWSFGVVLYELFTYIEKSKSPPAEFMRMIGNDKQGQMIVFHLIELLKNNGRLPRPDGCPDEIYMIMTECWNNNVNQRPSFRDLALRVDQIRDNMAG

[4] = biological target: T4, JAK3 (Homo sapiens, UniProt P52333); experiment: JAK3 inhibition (Table 4); details: read-out: JAK3 Ki
T4 construct: made in house; host or cells: SF9 insect cells (baculovirus)
T4 sequence (P52333 783-1124): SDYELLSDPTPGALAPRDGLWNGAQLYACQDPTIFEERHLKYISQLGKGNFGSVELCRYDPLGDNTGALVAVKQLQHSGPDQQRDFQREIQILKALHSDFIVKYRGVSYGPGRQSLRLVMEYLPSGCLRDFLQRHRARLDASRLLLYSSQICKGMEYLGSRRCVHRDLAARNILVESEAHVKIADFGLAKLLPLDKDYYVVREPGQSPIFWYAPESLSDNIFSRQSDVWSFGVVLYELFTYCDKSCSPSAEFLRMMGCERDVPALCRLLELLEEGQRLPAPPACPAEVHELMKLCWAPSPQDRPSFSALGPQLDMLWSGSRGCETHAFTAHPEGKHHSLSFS

T1 sequence (P23458 852-1154): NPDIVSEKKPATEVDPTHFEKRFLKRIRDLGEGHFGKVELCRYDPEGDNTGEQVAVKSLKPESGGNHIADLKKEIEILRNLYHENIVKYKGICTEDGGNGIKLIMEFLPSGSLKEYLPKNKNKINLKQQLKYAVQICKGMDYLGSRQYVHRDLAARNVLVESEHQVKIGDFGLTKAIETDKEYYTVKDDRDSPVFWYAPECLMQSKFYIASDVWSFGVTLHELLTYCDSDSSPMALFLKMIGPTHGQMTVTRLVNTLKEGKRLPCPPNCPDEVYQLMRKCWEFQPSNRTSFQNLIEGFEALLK

Structure (SMILES) | Ki [1] | Ki [2] | Ki [3] | Ki [4]
OC1CCN(Cc2nc3cnc4[nH]ccc4c3n2C2CCN(CC(F)F)CC2)CC1 [Example 705, 1-{1-[1-(2,2-Difluoro-ethyl)-piperidin-4-yl]-1,6-dihydro-1,2,3,5,6-tetraaza-as-indacen-2-ylmethyl}-piperidin-4-ol] | 0.0486 µM | 0.665 µM | 0.34 µM | 0.311 µM
N#CCC(=O)N1CCCC(n2cnc3cnc4[nH]ccc4c32)CC1 (racemic) [Example 485, 3-Oxo-3-[4-(6H-1,3,5,6-tetraaza-as-indacen-1-yl)-azepan-1-yl]-propionitrile] | 0.00107 µM | 0.0066 µM | 0.00191 µM | 0.019 µM
N#CCCN1CCC(n2c(CNC(=O)C3CC3)nc3cnc4[nH]ccc4c32)CC1 [Example 500, Cyclopropanecarboxylic acid {1-[1-(2-cyano-ethyl)-piperidin-4-yl]-1,6-dihydro-1,3,5,6-tetraaza-as-indacen-2-ylmethyl}-amide] | 0.0287 µM | 0.394 µM | 0.0587 µM | 0.041 µM
CCC(C)S(=O)(=O)NCc1nc2cnc3[nH]ccc3c2n1C1CCN(CCC#N)CC1 (racemic) [Example 502, Butane-2-sulfonic acid {1-[1-(2-cyano-ethyl)-piperidin-4-yl]-1,6-dihydro-1,3,5,6-tetraaza-as-indacen-2-ylmethyl}-amide] | 0.0152 µM | 0.417 µM | 0.0906 µM | 0.105 µM
Cc1nc2cnc3[nH]ccc3c2n1[C@H]1CC[C@@H](C(=O)O)CC1 [Example 420, 4-(2-Methyl-6H-1,3,5,6-tetraaza-as-indacen-1-yl)-cyclohexanecarboxylic acid] | 0.0662 µM | 0.0286 µM | 0.0806 µM | 0.0391 µM
CC(CC#N)N1CCC(n2c(C3CC(=O)N(C)C3)nc3cnc4[nH]ccc4c32)CC1 (racemic) [Example 395, 3-{4-[2-(1-Methyl-5-oxo-pyrrolidin-3-yl)-6H-1,3,5,6-tetraaza-as-indacen-1-yl]-piperidin-1-yl}-butyronitrile] | 0.0177 µM | 0.245 µM | 0.073 µM | 0.0965 µM
COC(=O)N1CCC(n2c([C@@H](C)O)nc3cnc4[nH]ccc4c32)CC1 [Example 929, 4-[2-((R)-1-Hydroxy-ethyl)-6H-1,3,5,6-tetraaza-as-indacen-1-yl]-piperidine-1-carboxylic acid methyl ester] | 0.106 µM | 0.281 µM | 0.578 µM | 0.185 µM
C[C@@H](O)c1nc2cnc3[nH]ccc3c2n1C1CCC(NCC(F)F)CC1 (stereo partly drawn) [Example 1002, (R)-1-{1-[4-(2,2-Difluoro-ethylamino)-cyclohexyl]-1,6-dihydro-1,3,5,6-tetraaza-as-indacen-2-yl}-ethanol] | 0.00097 µM | 0.00476 µM | 0.0221 µM | 0.111 µM
O=C1CC(n2cnc3cnc4[nH]ccc4c32)CCN1 (racemic) [Example 133, 4-(6H-1,2,3,5,6-Tetraaza-as-indacen-1-yl)-piperidin-2-one] | 0.0542 µM | 0.798 µM | 0.15 µM | 0.297 µM
COCCNC1CCC(n2c(C)nc3cnc4[nH]ccc4c32)C1 (racemic) [Example 628, Racemic trans (2-methoxy-ethyl)-[3-(2-methyl-6H-1,2,3,5,6-tetraaza-as-indacen-1-yl)-cyclopentyl]-amine] | 0.0431 µM | 0.974 µM | 0.375 µM | 0.798 µM
CC(C)(C)OC(=O)N[C@@H]1CC[C@@H](n2nnc3cnc4[nH]ccc4c32)C1 [Example 727, [(1R,3R)-3-(6H-1,2,3,5,6-Pentaaza-as-indacen-1-yl)-cyclopentyl]-carbamic acid tert-butyl ester] | 0.00176 µM | 0.143 µM | 0.00773 µM | 0.0744 µM
C[C@@H](O)c1nc2cnc3[nH]ccc3c2n1C1CCN(CCF)CC1 [Example 873, (R)-1-{1-[1-(2-Fluoro-ethyl)-piperidin-4-yl]-1,6-dihydro-1,3,5,6-tetraaza-as-indacen-2-yl}-ethanol] | 0.0207 µM | 0.422 µM | 0.124 µM | 0.0727 µM
c1ncc(CN2CCC[C@@H](n3cnc4cnc5[nH]ccc5c43)C2)cn1 [Example 42, 1-((R)-1-Pyrimidin-5-ylmethyl-piperidin-3-yl)-1,6-dihydro-1,3,5,6-tetraaza-as-indacene] | 0.0149 µM | 0.122 µM | 0.041 µM | 0.093 µM
COC(=O)N[C@H]1CC[C@H](n2nnc3cnc4[nH]ccc4c32)CC1 [Example 353, [4-(6H-1,2,3,5,6-Pentaaza-as-indacen-1-yl)-cyclohexyl]-carbamic acid methyl ester] | 0.00827 µM | 0.0874 µM | 0.015 µM | 0.216 µM
O=C(Cc1nc2cnc3[nH]ccc3c2n1C1CCN(Cc2ccccc2)CC1)NC1CCCC1 [Example 99, 2-[1-(1-Benzyl-piperidin-4-yl)-1,6-dihydro-1,3,5,6-tetraaza-as-indacen-2-yl]-N-cyclopentyl-acetamide] | 0.00429 µM | 0.586 µM | 0.0164 µM | 0.0108 µM
N#CCCN1CCC(n2c(COCC3CC3)nc3cnc4[nH]ccc4c32)CC1 [Example 839, 3-[4-(2-Cyclopropylmethoxymethyl-6H-1,3,5,6-tetraaza-as-indacen-1-yl)-piperidin-1-yl]-propionitrile] | 0.0617 µM | 0.595 µM | 0.106 µM | 0.0735 µM
CC(=O)NCc1nc2cnc3[nH]ccc3c2n1C1CCN(CCC#N)CC1 [Example 492, N-{1-[1-(2-Cyano-ethyl)-piperidin-4-yl]-1,6-dihydro-1,3,5,6-tetraaza-as-indacen-2-ylmethyl}-acetamide] | 0.016 µM | 0.21 µM | 0.0865 µM | 0.2 µM
N#Cc1ccc(N2CCC(n3cnc4cnc5[nH]ccc5c43)CC2)nc1 [Example 95, 4-(6H-1,3,5,6-Tetraaza-as-indacen-1-yl)-3,4,5,6-tetrahydro-2H-[1,2′]bipyridinyl-5′-carbonitrile] | 0.0122 µM | 0.102 µM | 0.0354 µM | 0.161 µM
Cn1cncc1CN[C@H]1CC[C@H](n2cnc3cnc4[nH]ccc4c32)CC1 [Example 575, trans (3-Methyl-3H-imidazol-4-ylmethyl)-[4-(6H-1,3,5,6-tetraaza-as-indacen-1-yl)-cyclohexyl]-amine] | 0.00717 µM | 0.0447 µM | 0.034 µM | 0.206 µM
CNC(=O)Cc1nc2cnc3[nH]ccc3c2n1C1CCCOC1 (racemic) [Example 961, N-Methyl-2-[1-(tetrahydro-pyran-3-yl)-1,6-dihydro-1,3,5,6-tetraaza-as-indacen-2-yl]-acetamide] | 0.0456 µM | 0.438 µM | 0.333 µM | 0.316 µM
N#CCCN1CCC(n2c(CC(=O)NC3CCCC3)nc3cnc4[nH]ccc4c32)CC1 [Example 268, 2-{1-[1-(2-Cyano-ethyl)-piperidin-4-yl]-1,6-dihydro-1,3,5,6-tetraaza-as-indacen-2-yl}-N-cyclopentyl-acetamide] | 0.00506 µM | 0.12 µM | 0.0161 µM | 0.0075 µM
Cc1nc2cnc3[nH]ccc3c2n1[C@@H]1CCCN(C(=O)CC#N)C1 [Example 272] | 0.0005 µM | 0.00471 µM | 0.00135 µM | 0.00314 µM
c1ccc(CCN2CCC(n3cnc4cnc5[nH]ccc5c43)CC2)cc1 [Example 80, 1-(1-Phenethyl-piperidin-4-yl)-1,6-dihydro-1,3,5,6-tetraaza-as-indacene] | 0.00561 µM | 0.106 µM | 0.0155 µM | 0.163 µM
CC(C)(O)CN1CC[C@@H](n2cnc3cnc4[nH]ccc4c32)C1 [Example 185, 2-Methyl-1-[(R)-3-(6H-1,2,3,5,6-tetraaza-as-indacen-1-yl)-pyrrolidin-1-yl]-propan-2-ol] | 0.105 µM | 0.708 µM | 0.162 µM | 0.502 µM
O=S(=O)(C1CC1)N1CCC(n2cnc3cnc4[nH]ccc4c32)CC1 [Example 69, 1-(1-Cyclopropanesulfonyl-piperidin-4-yl]-1,6-dihydro-1,3,5,6-tetraaza-as-indacene] | 0.00344 µM | 0.0266 µM | 0.00441 µM | 0.0933 µM
O[C@@H]1CC[C@@H](n2cnc3cnc4[nH]ccc4c32)C1 [Example 711, (1R,3R)-3-(6H-1,2,3,5,6-Tetraaza-as-indacen-1-yl)-cyclopentanol] | 0.0141 µM | 0.0703 µM | 0.0369 µM | 0.0158 µM
OCc1nc2cnc3[nH]ccc3c2n1C1CCNCC1(F)F (racemic) [Example 948, [1-(3,3-Difluoro-piperidin-4-yl)-1,6-dihydro-1,3,5,6-tetraaza-as-indacen-2-yl]-methanol] | 0.00123 µM | 0.00732 µM | 0.0136 µM | 0.00595 µM
CS(=O)(=O)CC[C@H]1CC[C@H](n2c(CO)nc3cnc4[nH]ccc4c32)CC1 [Example 652, Trans {1-[4-(2-methanesulfonyl-ethyl)-cyclohexyl]-1,6-dihydro-1,2,3,5,6-tetraaza-as-indacen-2-yl}-methanol] | 0.00081 µM | 0.0037 µM | 0.00438 µM | 0.039 µM
